The values that follow come from US20120315648A1, “METHOD OF IDENTIFICATION OF CELLS THAT SHOW SENSITIVITY TO MODULATION OF SIGNALING MEDIATED BY A FIBROBLAST GROWTH FACTOR RECEPTOR OR A VARIANT THEREOF” (priority 2007, published 2012).

Entries after “also recorded” stand apart in the source; their conditions may differ.

For assay [1], the system named is RT4 bladder cancer cell line. The assay is described as follows: Cell proliferation assay (methylene blue, 96-well), RT4. The assay is classed as cell-based. As to conditions: Homo sapiens; RT4 bladder cancer cells, 72 h, average of several independent assays; read-out: IC50 (nM) ± SD, proliferation inhibition. As for the experimental part:
(§1) The bladder carcinoma cell lines are grown in MEM EBS (Minimum Essential Medium with Earls Basal Salts) (Amimed, Allschwil, Switzerland, #1-31F0-I) supplemented with 1% L-glutamine (Amimed #5-10K00-H), 1% MEM NEAA (MEM Non-essential Amino Acid Solution) (Amimed #5-13K00-H), 1% Na- pyruvate (Amimed #5-60F00-H) and 10% FCS (Gibco, Invitrogen AG, Basel, Schweiz, #10082-147).
(§2) In detail, FGF-R1, FGF-R2 and FGF-R4 expression is determined by Western Blot using specific antibodies, respectively: sc-121 (Santa Cruz), sc-122 (Santa Cruz) and sc-124 (Santa Cruz). […] Cell proliferation is measured in 96-well plates. […] Upon addition of 200 μl/well HCl (3%) and incubation for 30 min at RT on a plate shaker, the Optical Density (OD) at 650 nm is measured. The concentration of inhibitor 1 providing 50% of proliferation inhibition is calculated using Excel module.
(§3) The FGF-R dependency as well as sensitivity to inhibitor 1 and/or to inhibitor 2 for each of the indicated cell lines is characterized as indicated above. The effect of inhibitor 1 and inhibitor 2 on cell viability is assessed by means of proliferation assays; the IC50s shown are the average IC50s of several independent assays (their number given by N).

For assay [2], the system named is RT112 bladder cancer cell line. The assay is described as follows: Cell proliferation assay (methylene blue, 96-well), RT112. Particulars: Homo sapiens, RT-112; RT112 bladder cancer cells, 72 h, average of several independent assays; read-out: IC50 (nM) ± SD, proliferation inhibition. The assay is classed as cell-based. As for the experimental part: as §1, §2, §3

Assay [3] has as its system OPM2 multiple myeloma cell line. Description: Cell proliferation assay (methylene blue, 96-well), OPM2. The assay is classed as cell-based. As to conditions: Homo sapiens, OPM-2; OPM2 multiple myeloma cells, 72 h; read-out: IC50 (nM) ± SD, proliferation inhibition. From the text: (§4) OPM2 and KMS11: human multiple myeloma (MM) cell lines derived from end-stage disease patients. OPM2 cells are obtained from DSMZ ACC #50.
(§5) KMS11 cells are provide by Dr. T Otsuki, Kawasaki Medical School, Okayama, Japan. Both cell lines are reported to carry the t(4,14) translocation and express a mutated, constitutively activated form of FGF-R3. In particular, OPM2 cells harbour a mutation in the ATP binding pocket in the kinase domain, which results in a change of lysine in position 650 into glutamic acid. KMS11 cells harbor a mutation in the extracellular domain of the receptor changing tyrosine in position 373 into cysteine. Both cell lines are grown in RPMI 1640 (Gibco #21875) supplemented with 1% L-glutamine (Amimed #5-10K00-H) and 20% FCS (Gibco #10082-147).
(§6) In detail, FGF-R1, FGF-R2 and FGF-R4 expression is determined by Western Blot using specific antibodies, respectively: sc-121 (Santa Cruz), sc-122 (Santa Cruz) and sc-124 (Santa Cruz). […] Cell proliferation is measured in 96-well plates. […] Upon addition of 200 μl/well HCl (3%) and incubation for 30 min at RT on a plate shaker, the Optical Density (OD) at 650 nm is measured. The concentration of inhibitor 1 providing 50% of proliferation inhibition is calculated using Excel module. […]

Assay [4] concerns J82 bladder carcinoma cell line. Description: Cell proliferation assay (methylene blue, 96-well), J82. Particulars: for IC50: Homo sapiens, J82 bladder cancer cells, 72 h, read-out: IC50 (nM) ± SD, proliferation inhibition; for sensitivity of growth to inhibition (in words): J82 cells. Type of assay: cell-based, human. As for the experimental part: J82: human urinary bladder transitional cell carcinoma established from a primary bladder carcinoma, histological grade G3, stage T3 (Masters et al. 1986, loc. cit.). Cells are obtained from ATCC # HTB-1.
as §1
(§7) In detail, FGF-R1, FGF-R2 and FGF-R4 expression is determined by Western Blot using specific antibodies, respectively: sc-121 (Santa Cruz), sc-122 (Santa Cruz) and sc-124 (Santa Cruz). To determine the expression of FGF-R3, first FGF-R3 is immunoprecipitated with the antibody F-0425 from Sigma, and the immunocomplexes are subjected to Western Blot using the antibody F-0425 from Sigma. Cell proliferation is measured in 96-well plates. The cells are seeded in a volume of 100 μl per well in the growth media given above. For RT 112, RT4 and SUM52 8500 cells/well are seeded, for VMCUB1, J82, HT1197 and KMS11, 5000 cells/well are seeded, for OPM2 30000 cells/well are seeded. Medium containing FGF-R inhibitor 1, FGFR inhibitor 2 or (as control) DMSO is added 24 h after seeding, respectively. After 72 h, cells are fixed by addition of 25 μl/well glutaraldehyde (20%) for 10 min at room temperature (RT). Cells are then washed twice with 200 μl/well H2O and 100 μl Methylene Blue (0.05%) are added. After incubation for 10 min at RT, cells are washed 3× with 200 μl/well H2O. Upon addition of 200 μl/well HCl (3%) and incubation for 30 min at RT on a plate shaker, the Optical Density (OD) at 650 nm is measured. The concentration of inhibitor 1 providing 50% of proliferation inhibition is calculated using Excel module.
as §3

Assay [5] deals with VMCUB1 bladder carcinoma cell line. The assay is described as follows: Cell proliferation assay (methylene blue, 96-well), VMCUB1. Type of assay: cell-based, human. As to conditions: for IC50: Homo sapiens, VM-CUB-1, VMCUB1 bladder cancer cells, 72 h, read-out: IC50 (nM) ± SD, proliferation inhibition; for sensitivity of growth to inhibition (in words): VMCUB1 cells. As for the experimental part:
VMCUB-1: human urinary bladder transitional cell carcinoma established from a primary bladder carcinoma. Stage and histological grade are not recorded (Masters et al. 1986, loc. cit.). Cells are obtained from DSMZ ACC #400.
as §1, §7, §3

The test system of assay [6] is KMS11 multiple myeloma cell line. Description: Cell proliferation assay (methylene blue, 96-well), KMS11. The assay is classed as cell-based. Particulars: Homo sapiens, KMS-11; KMS11 multiple myeloma cells, 72 h; read-out: IC50 (nM) ± SD, proliferation inhibition.
Excerpt: as §4, §5, §6

In assay [7] the test system is FRS-2 tyrosine phosphorylation in RT4 cells. The assay is described as follows: FRS-2 tyrosine phosphorylation after FGF-R inhibitor treatment (IP/Western Blot), RT4 cells. Type of assay: cell-based, human. Particulars: RT4 cells treated with inhibitor, FIG. 2A. As for the experimental part: FIG. 2: Comparative analysis of FRS-2 phosphorylation following treatment with the FGF-R inhibitor PD173074 (inhibitor 1, see Methods in Example 1) in the RT4 cells, in the case of RT112 with TKI258/CHIR258, 4-Amino-5-fluoro-3[6-(4-methyl-1-piperazinyl)-1H-benzimidazol-2-yl]-2(1H)-quinolinone (inhibitor 2, see Methods in Example 1). The cell lines indicated are treated as shown. FRS-2 tyrosine phosphorylation is determined by immunoprecipitation with a specific FRS-2 antibody followed by […] Western Blotting, or by western blot using an antibody that detects phosphorylated Tyr196 on FRS2. […] Inhib. 1=inhibitor 1, Inhib. 2=inhibitor 2, DMSO=dimethyl sulfoxide.
(§8) Cells are solubilized in 1% Triton extraction buffer containing protease and phosphatase inhibitors (“lysis buffer” 50 mM Tris pH 7.5, 150 mM NaCl, 1 mM EGTA, 5 mM EDTA, 1% Triton, 2 mM NaVanadate, 1 mM PMSF and protease inhibition cocktail from Hoffmann-LaRoche, Basel, Switzerland, #1187358001). Lysates are clarified by centrifugation at 12000×g for 15 min and protein concentration is determined using the DC Protein Assay Reagents (Bio Rad, Bio-Rad Laboratories, Inc., Hercules, Calif., USA, #500-0116) (an assay based on the method of Bradford, M., see Anal. Biochem., 72, 248 (1976), employing Coomassie Blue®, ICI) and a Bovine Serum Albumin (BSA) standard. […]

The subject of assay [8] is HT1197 bladder carcinoma cell line. Description: Cell proliferation assay (methylene blue, 96-well), HT1197. Type of assay: cell-based, human. Particulars: for sensitivity of growth to inhibition (in words): HT1197 cells; for IC50: Homo sapiens, HT1197 bladder cancer cells, 72 h, read-out: IC50 (nM) ± SD, proliferation inhibition. As for the experimental part:
HT1197: human urinary bladder transitional cell carcinoma established from a recurrent bladder carcinoma, histological grade G4, stage T2 (Masters et al. 1986, loc. cit.). Cells are obtained from ATCC # CRL-1473.
as §1, §7, §3

Assay [9] deals with SUM52 breast carcinoma cell line. The assay is described as follows: Cell proliferation assay (methylene blue, 96-well), SUM52. The assay is classed as cell-based. Particulars: Homo sapiens; SUM52 breast cancer cells, 72 h; read-out: IC50 (nM) ± SD, proliferation inhibition. How it is done: as §7, with “After 72 h, cells are fixed by addition of 25 μl/well glutaraldehyde (20%) for 10 min at room temperature (RT). Cells are then washed twice with 200 μl/well H2O and 100 μl Methylene Blue (0.05%) are added. After incubation for 10 min at RT, cells are washed 3× with 200 μl/well H2O.” left out
as §3

The subject of assay [10] is FRS-2 tyrosine phosphorylation in RT112 cells. The assay is described as follows: FRS-2 tyrosine phosphorylation after FGF-R inhibitor treatment (IP/Western Blot), RT112 cells. The assay is classed as cell-based, human. As to conditions: RT112 cells treated with inhibitor, FIG. 2B. For orientation: A western blot detects proteins with antibodies after separation by electrophoresis.
Description: The cell lines indicated are treated as shown. FRS-2 tyrosine phosphorylation is determined by immunoprecipitation with a specific FRS-2 antibody followed by anti-FRS-2 Western Blotting, or by western blot using an antibody that detects phosphorylated Tyr196 on FRS2.
Immunocomplexes are collected with protein A- or protein G-sepharose (Sigma, # P-9424; Sigma, # P-3296) and washed 3 × with lysis buffer. Bound proteins are released by boiling in 2 × sample buffer (20% SDS, 20% glycerol, 160 mM Tris pH 6.8, 4% β-mercaptoethanol, 0.04% bromo-phenol blue). […]

Assay [11] concerns MAPK activation in RT112 cells. Description: MAPK activation upon growth factor stimulation (anti-phosphoMAPK Western Blot), RT112 cells. Particulars: EGF 10 ng/ml, insulin 5 μg/ml, FIG. 3. The assay is classed as cell-based, human. As for the experimental part:
(§9) FIG. 3: Comparative analysis of FRS-2 tyrosine phosphorylation upon growth factor stimulation: The bladder cancer cell lines RT112 and […] are stimulated with aFGF/heparin (50 ng/ml//5 μg/ml), EGF (10 ng/ml) (from R & D Systems, Inc., Minneapolis, Minn., USA; #236-EG-200) or insulin (5 μg/ml) (Sigma, Sigma-Aldrich, Inc., St. Louis, Mo., USA; #1882). Cells are lysed and total protein lysates are recovered. FRS-2 tyrosine phosphorylation is determined by immunoprecipitation followed by anti-pTyr antibody Western Blotting, using antibodies mentioned in Table 1 of Example 1. […] Equal amount of MAPK protein is monitored by Western Blotting with α-MAPK (MAPK in Table 1 in Example 1). […]
as §8

Assay [12] concerns FRS-2 tyrosine phosphorylation in RT112 cells. The assay is described as follows: FRS-2 tyrosine phosphorylation upon growth factor stimulation (IP/Western Blot), RT112 cells. Type of assay: cell-based, human. As to conditions: aFGF/heparin 50 ng/ml//5 μg/ml, EGF 10 ng/ml, insulin 5 μg/ml, FIG. 3. How it is done:
as §9, §8

In the case of `CCN(CC)CCCCNc1ncc2cc(-c3cc(OC)cc(OC)c3)c(NC(=O)NC(C)(C)C)nc2n1` [Inhibitor 1, PD173074], the IC50 was 28 ± 8 nM in assay [1]; 14 ± 3 nM in assay [2]; 148 ± 31 nM in [3]; over 3000 nM in assay [4]; over 3000 nM in assay [5]; 50 ± 14 nM in assay [6]. For the same molecule, in assay [8], the IC50 was over 3000 nM. Further, the “sensitivity of growth to inhibition (in words)” value in [4], in assay [5] and in assay [8] was “resistant to inhibition” in each case. In addition, the “effect on FRS-2 tyrosine phosphorylation” value in [7] is “abolish FRS-2 tyrosine phosphorylation; also recorded: completely inhibits FRS-2 phosphorylation”.
In the case of `CN1CCN(c2ccc3nc(-c4c(N)c5c(F)cccc5[nH]c4=O)[nH]c3c2)CC1` [Inhibitor 2, 4-Amino-5-fluoro-3[6-(4-methyl-1-piperazinyl)-1H-benzimidazol-2-yl]-2(1H)-quinolinone], the IC50 in assay [1] is 134 ± 58 nM; in [9], 190 ± 58 nM; in assay [2], 60 ± 20 nM; in assay [4] it was over 3000 nM; in [5], over 2000 nM; in assay [6], 93 nM. Further, the IC50 in assay [8] was over 3000 nM. Also, the “sensitivity of growth to inhibition (in words)” value in [4], in assay [5] and in assay [8] was “resistant to inhibition” throughout. The “effect on FRS-2 tyrosine phosphorylation” value in assay [10] is on record as “abolish FRS-2 tyrosine phosphorylation”.
For the molecule insulin, the “MAPK activation (pMAPK)” value in assay [11] is recorded as “activate MAPK”. The “induction of FRS-2 tyrosine phosphorylation” value in assay [12] is “fail to induce phospho-FRS-2”.
